Laboratory results taken from ChEMBL document CHEMBL1201862, “PubChem BioAssay data set” (2004).
One block for each compound: values may come before it. Activity calls are given as the source filed them.

Experiments:
Cytochrome P450 2C19 = Cytochrome P450 2C19 (Homo sapiens, UniProt P33261); assay: Cytochrome panel assay with activity outcomes. Panel member name: p450-cyp2c19 Compounds with AC50 equal or less than 10 uM are considered active; assay type: functional; settings: read-out: AC50
Cytochrome P450 1A2 = target: T1, Cytochrome P450 1A2 (Homo sapiens, UniProt P05177);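 further: PubChem cytochrome P450 panel assay, CYP1A2 panel member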
T1 sequence (P05177 whole entry): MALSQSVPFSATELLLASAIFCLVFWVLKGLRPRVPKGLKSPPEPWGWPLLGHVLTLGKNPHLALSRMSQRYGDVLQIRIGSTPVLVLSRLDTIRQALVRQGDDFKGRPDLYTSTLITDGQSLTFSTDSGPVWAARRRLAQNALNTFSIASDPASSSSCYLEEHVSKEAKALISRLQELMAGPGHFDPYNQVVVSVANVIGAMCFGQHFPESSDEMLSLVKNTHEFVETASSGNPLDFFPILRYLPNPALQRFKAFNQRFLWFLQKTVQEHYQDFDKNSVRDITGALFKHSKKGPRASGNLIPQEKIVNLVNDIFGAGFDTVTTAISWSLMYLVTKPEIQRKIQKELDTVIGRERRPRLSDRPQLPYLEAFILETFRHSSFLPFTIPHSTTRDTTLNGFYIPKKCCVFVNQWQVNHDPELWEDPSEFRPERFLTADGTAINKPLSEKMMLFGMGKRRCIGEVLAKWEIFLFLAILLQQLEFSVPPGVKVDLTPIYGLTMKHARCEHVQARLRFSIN

Cannabinoid receptor 2 [1] = target: T2, Cannabinoid receptor 2 (Homo sapiens, UniProt P34972); assay: SAR analysis of antagonists of the Cannabinoid Receptor 2 using an Image-Based Assay - Set 3. [Related pubchem assays (depositor defined):AID2013, AID2026]; assay type: functional
T2 sequence (P34972 whole entry): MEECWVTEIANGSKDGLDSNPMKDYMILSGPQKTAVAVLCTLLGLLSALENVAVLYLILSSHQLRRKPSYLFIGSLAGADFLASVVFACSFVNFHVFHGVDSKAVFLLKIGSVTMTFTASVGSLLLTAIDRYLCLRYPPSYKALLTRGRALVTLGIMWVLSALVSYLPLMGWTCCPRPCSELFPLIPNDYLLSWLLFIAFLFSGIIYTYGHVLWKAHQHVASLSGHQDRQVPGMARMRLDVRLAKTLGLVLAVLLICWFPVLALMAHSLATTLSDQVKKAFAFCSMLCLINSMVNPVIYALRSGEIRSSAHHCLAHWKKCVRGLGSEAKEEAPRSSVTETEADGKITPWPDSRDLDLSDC

[2] = target: T3, G-protein coupled receptor 35 (Homo sapiens, UniProt Q9HC97); assay: SAR analysis of Agonists of the GPR35 Receptor using an Image-Based Assay - Set 4. [Related pubchem assays (depositor defined):AID2013, AID2026]; assay type: functional
T3 sequence (Q9HC97 whole entry): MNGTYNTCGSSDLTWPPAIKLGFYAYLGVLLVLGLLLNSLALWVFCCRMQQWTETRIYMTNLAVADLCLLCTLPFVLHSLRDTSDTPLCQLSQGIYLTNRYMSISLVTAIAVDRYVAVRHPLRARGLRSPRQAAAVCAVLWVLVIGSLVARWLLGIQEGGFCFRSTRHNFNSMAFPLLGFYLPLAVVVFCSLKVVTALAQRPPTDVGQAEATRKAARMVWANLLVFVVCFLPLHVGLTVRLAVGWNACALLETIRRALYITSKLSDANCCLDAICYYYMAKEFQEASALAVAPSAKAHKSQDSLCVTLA

[3] = target: T4, High affinity choline transporter 1 (Homo sapiens, UniProt Q9GZV3); assay: human choline transporter blockers, potency – cell-based, 5-point CRC, membrane potential dye, dose response (AID 504840); assay type: functional
T4 sequence (Q9GZV3 whole entry): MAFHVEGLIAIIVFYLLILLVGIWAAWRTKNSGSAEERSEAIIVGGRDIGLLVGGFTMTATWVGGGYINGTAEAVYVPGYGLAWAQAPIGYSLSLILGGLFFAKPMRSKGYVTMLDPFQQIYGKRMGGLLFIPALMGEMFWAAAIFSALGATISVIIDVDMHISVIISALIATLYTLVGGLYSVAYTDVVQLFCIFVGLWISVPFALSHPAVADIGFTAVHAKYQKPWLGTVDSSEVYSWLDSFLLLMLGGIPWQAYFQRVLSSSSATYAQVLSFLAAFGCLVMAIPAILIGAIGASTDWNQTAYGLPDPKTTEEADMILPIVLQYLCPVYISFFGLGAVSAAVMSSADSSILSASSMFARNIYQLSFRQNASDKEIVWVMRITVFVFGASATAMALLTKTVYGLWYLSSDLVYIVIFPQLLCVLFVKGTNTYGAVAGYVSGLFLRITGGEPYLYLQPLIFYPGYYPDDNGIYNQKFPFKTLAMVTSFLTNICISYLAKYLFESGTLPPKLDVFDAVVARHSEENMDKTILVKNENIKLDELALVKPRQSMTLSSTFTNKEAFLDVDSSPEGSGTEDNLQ

[4] = target: COUP transcription factor 2 (Homo sapiens, UniProt P24468); assay: Luminescence-based cell-based high throughput dose response assay to identify inhibitors of COUP-TFII (NR2F2).; assay type: functional;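 further: HEK293 cells transiently cotransfected with COUP-TFII expression vector and reporter; luciferase reporter luminescence driven by COUP-TFII from the pX2-168 reporter plasmid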
Sequence of COUP transcription factor 2 (P24468 whole entry): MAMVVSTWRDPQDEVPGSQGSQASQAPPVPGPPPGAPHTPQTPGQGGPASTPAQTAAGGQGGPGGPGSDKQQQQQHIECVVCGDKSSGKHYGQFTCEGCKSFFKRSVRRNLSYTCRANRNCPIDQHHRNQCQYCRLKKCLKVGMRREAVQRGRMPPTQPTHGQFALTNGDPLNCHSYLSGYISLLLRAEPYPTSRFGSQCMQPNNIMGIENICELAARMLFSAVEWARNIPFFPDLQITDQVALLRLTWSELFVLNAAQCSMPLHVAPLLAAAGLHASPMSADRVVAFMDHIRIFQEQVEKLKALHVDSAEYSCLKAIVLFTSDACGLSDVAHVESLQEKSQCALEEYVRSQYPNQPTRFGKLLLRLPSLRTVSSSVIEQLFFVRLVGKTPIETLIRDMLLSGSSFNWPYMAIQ

Cannabinoid receptor 1 [5] = target: T5, Cannabinoid receptor 1 (Homo sapiens, UniProt P21554); assay: SAR analysis of agonists of the Cannabinoid Receptor 1 using an Image-Based Assay - Set 4. [Related pubchem assays (depositor defined):AID2013, AID2026]; assay type: functional
T5 sequence (P21554 whole entry): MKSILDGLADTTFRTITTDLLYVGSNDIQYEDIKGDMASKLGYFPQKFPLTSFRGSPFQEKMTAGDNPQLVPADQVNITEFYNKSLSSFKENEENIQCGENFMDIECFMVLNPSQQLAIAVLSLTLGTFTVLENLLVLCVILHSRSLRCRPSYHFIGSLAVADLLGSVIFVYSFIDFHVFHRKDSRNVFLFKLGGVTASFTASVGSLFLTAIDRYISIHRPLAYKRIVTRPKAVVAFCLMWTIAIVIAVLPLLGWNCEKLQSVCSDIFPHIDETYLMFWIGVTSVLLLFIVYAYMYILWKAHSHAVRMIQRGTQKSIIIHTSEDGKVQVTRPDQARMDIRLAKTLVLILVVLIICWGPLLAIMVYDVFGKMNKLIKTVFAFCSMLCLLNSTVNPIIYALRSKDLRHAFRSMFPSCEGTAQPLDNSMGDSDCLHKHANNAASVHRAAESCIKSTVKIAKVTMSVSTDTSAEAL

Cannabinoid receptor 2 [6] = target: T2, Cannabinoid receptor 2; assay: SAR analysis of agonists of the Cannabinoid Receptor 2 using an Image-Based Assay - Set 3. [Related pubchem assays (depositor defined):AID2013, AID2026]; assay type: functional
Cannabinoid receptor 1 [7] = target: T5, Cannabinoid receptor 1; assay: SAR analysis of antagonists of the Cannabinoid Receptor 1 using an Image-Based Assay - Set 4. [Related pubchem assays (depositor defined):AID2013, AID2026]; assay type: functional
[8] = target: G-protein coupled receptor 55 (Homo sapiens, UniProt Q9Y2T6); assay: SAR Analysis of Selective Antagonists of GPR55 using an Image-Based Assay - Set 4. [Related pubchem assays (depositor defined):AID2013, AID2026]; assay type: functional;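 further: antagonism of response to 5 µM lysophosphatidylinositol agonist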
Sequence of G-protein coupled receptor 55 (Q9Y2T6 whole entry): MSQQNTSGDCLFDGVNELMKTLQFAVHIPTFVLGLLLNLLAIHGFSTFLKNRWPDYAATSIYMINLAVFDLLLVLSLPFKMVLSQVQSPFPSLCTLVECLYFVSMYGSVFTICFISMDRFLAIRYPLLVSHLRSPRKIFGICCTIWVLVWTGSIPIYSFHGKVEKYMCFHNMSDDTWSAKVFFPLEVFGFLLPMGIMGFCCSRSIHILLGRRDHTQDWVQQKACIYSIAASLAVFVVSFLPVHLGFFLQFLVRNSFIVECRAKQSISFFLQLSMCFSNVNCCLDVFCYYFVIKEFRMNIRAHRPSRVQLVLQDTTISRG

[9] = target: T3, G-protein coupled receptor 35; assay: SAR analysis of Antagonists of the GPR35 Receptor using an Image-Based Assay - Set 6. [Related pubchem assays (depositor defined):AID2013, AID2026]; assay type: functional
Cytochrome P450 3A4 = Cytochrome P450 3A4 (Homo sapiens, UniProt P08684);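 further: CYP3A4 tested as one member of a cytochrome P450 panel screen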
Sequence of Cytochrome P450 3A4 (P08684 whole entry): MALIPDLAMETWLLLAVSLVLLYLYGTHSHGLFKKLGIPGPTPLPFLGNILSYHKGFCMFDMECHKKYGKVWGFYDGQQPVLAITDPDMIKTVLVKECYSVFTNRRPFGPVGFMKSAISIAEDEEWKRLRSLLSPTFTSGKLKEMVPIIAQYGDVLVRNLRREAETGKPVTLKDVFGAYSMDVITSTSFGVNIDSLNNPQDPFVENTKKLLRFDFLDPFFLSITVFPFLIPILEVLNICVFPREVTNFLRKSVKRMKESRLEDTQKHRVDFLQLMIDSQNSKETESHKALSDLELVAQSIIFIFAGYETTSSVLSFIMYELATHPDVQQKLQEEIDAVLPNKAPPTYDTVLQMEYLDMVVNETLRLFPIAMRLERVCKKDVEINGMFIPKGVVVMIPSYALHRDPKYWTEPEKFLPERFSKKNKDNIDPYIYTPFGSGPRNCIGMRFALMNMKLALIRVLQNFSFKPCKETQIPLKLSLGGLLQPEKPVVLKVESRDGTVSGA

Cytochrome P450 2C9 = Cytochrome P450 2C9 (Homo sapiens, UniProt P11712)
Sequence of Cytochrome P450 2C9 (P11712 whole entry): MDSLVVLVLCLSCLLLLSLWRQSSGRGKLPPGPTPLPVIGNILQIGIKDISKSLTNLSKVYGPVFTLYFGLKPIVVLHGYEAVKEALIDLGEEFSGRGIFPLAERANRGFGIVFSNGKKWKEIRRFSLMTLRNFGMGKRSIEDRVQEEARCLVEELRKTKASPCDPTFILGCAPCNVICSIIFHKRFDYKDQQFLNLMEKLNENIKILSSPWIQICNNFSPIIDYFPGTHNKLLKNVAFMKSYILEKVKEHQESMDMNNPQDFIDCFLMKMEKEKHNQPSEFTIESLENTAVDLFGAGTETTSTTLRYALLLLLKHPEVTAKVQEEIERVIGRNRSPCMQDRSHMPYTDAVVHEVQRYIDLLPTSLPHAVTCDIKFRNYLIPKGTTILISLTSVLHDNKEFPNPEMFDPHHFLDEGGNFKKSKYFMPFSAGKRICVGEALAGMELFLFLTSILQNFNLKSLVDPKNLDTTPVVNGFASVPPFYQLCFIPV

[10] = target: T6, Mannose-6-phosphate isomerase (Homo sapiens, UniProt P34949); assay: phosphomannose isomerase inhibition – biochemical, fluorescence intensity, confirmation (AID 1535)
T6 sequence (P34949 whole entry): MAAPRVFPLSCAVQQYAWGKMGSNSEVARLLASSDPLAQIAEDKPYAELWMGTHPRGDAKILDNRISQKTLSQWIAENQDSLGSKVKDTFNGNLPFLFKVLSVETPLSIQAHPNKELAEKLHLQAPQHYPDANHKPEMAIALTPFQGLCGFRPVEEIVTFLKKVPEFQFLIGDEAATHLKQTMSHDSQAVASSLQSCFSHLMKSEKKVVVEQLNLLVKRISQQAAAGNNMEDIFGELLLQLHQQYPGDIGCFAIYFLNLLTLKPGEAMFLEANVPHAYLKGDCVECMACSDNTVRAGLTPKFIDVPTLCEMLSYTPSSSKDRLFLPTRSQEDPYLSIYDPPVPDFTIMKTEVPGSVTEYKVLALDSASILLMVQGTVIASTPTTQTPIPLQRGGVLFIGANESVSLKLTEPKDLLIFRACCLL

Phosphomannomutase 2 = Phosphomannomutase 2 (Homo sapiens, UniProt O15305); assay: Counter screen SAR assay for PMM2 inhibitors via a fluorescence intensity assay. [Related pubchem assays (depositor defined):AID1545, AID1574]
[11] = target: Delta-type opioid receptor (Homo sapiens, UniProt P41143); assay: SAR Analysis of Agonists of the DOR Receptor using an Image-Based Assay - Set 3. [Related pubchem assays (depositor defined):AID1777, AID1786]; assay type: functional
Mu-type opioid receptor = Mu-type opioid receptor (Homo sapiens, UniProt P35372); assay: SAR Analysis of Agonists of the MOR Receptor using an Image-Based Assay - Set 3. [Related pubchem assays (depositor defined):AID1777, AID1785, AID1786, AID1966, AID2133, AID2136, AID2284, AID2285, AID2352]; assay type: functional
Sequence of Mu-type opioid receptor (P35372 whole entry): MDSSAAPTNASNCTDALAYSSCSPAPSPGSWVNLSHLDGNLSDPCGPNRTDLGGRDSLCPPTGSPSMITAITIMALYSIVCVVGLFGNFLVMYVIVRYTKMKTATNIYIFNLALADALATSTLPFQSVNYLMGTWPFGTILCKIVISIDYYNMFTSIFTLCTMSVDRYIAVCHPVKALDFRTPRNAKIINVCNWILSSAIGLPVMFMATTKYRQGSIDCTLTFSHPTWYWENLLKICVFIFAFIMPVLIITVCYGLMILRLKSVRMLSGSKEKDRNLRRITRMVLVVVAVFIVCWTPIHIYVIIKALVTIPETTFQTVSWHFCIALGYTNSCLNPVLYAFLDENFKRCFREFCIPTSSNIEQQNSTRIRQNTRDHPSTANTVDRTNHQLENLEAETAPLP

[12] = target: T7, Kappa-type opioid receptor (Homo sapiens, UniProt P41145); assay: SAR analysis of small molecule agonists of the kappa opioid receptor via a luminescent beta-arrestin assay - Set 3. [Related pubchem assays (depositor defined):AID1777, AID1785, AID1786, AID1966, AID2133, AID2136, AID2284, AID2500]; assay type: functional
T7 sequence (P41145 whole entry): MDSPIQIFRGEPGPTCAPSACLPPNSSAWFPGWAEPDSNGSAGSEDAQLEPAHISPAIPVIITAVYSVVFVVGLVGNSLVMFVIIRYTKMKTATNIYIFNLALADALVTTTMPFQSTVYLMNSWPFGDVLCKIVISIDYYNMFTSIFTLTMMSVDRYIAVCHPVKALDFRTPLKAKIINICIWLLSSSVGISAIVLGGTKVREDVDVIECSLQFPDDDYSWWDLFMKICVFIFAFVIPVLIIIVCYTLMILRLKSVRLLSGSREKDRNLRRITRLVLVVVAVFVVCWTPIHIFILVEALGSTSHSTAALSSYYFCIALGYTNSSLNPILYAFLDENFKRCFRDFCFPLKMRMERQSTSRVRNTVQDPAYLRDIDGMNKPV

[13] = target: T7, Kappa-type opioid receptor; assay: kappa opioid receptor activation by imaging – image-based, set 3, SAR follow-up (AID 488833); assay type: functional
[14] = T. cruzi infection blockers in NIH3T3 cells – beta-gal luminescence, NIH3T3 host cells, confirmation (AID 2630); assay type: functional, cell-based; settings: Mus musculus
Albumin = Albumin (Bos taurus, UniProt P02769); assay: Counterscreen for inhibitors of T-cell receptor (TCR)-CD3 interaction: Fluorescence-based biochemical high throughput dose response assay to identify inhibitors of T-cell receptor (TCR)-CD3 interaction using a TAMRA-labeled BSA probe.; assay type: functional
[15] = target: T8, Alkaline phosphatase, tissue-nonspecific isozyme (Homo sapiens, UniProt P05186); assay: activation of tissue-nonspecific alkaline phosphatase – biochemical, TNAP isozyme, mouse IAP uHTS hits, selectivity assay for mouse IAP activator project, dose response (AID 488880); assay type: functional
T8 sequence (P05186 whole entry): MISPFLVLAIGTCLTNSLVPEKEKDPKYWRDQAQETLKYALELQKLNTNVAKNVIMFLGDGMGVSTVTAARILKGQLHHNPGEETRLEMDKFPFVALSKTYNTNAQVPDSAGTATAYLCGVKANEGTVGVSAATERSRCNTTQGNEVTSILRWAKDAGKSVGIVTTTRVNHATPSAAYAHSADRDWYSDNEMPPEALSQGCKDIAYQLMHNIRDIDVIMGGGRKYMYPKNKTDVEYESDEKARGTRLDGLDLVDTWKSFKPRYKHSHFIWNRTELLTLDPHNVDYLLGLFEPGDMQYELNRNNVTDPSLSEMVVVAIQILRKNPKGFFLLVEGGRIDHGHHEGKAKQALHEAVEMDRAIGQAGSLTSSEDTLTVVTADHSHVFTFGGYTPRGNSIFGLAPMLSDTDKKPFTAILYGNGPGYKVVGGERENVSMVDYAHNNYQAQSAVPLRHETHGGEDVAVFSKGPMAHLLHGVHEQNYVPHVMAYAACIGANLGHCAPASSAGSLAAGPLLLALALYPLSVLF

[16] = target: Intestinal-type alkaline phosphatase (Mus musculus, UniProt P24822); assay: mouse intestinal alkaline phosphatase activators, dose response, biochemical, luminescence, uHTS hits (AID 488783); assay type: functional
Sequence of Intestinal-type alkaline phosphatase (Mus musculus, UniProt P24822) (P24822 whole entry): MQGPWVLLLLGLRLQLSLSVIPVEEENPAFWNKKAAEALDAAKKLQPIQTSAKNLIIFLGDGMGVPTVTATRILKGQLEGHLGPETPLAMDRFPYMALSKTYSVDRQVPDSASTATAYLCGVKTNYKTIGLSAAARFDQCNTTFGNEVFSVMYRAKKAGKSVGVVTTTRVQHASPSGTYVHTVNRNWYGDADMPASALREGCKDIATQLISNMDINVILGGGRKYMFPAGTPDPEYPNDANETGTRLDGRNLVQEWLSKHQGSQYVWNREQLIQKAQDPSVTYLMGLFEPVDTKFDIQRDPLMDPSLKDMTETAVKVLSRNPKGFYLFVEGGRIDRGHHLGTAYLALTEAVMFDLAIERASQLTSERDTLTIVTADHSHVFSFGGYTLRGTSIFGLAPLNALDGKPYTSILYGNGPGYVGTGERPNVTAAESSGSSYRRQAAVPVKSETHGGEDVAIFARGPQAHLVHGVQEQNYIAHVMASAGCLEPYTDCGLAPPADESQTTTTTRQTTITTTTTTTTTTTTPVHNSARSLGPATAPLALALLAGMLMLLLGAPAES

[17] = target: Induced myeloid leukemia cell differentiation protein Mcl-1 (Homo sapiens, UniProt Q07820); assay: blockers of MCL1 binding to BIM peptide – biochemical, fluorescence polarization, BIM-BH3 peptide, 1536-well, dose response (AID 2217)
Genome polyprotein = Genome polyprotein (dengue virus type 2, UniProt P29990); assay: flavivirus cap methylation enzyme inhibition – biochemical, confirmation dose response, primary screen (AID 588689); assay type: functional
[18] = target: Intestinal-type alkaline phosphatase (Homo sapiens, UniProt P09923); assay: activation of human intestinal alkaline phosphatase – biochemical, dose response (AID 488873); assay type: functional
Bcl-2-like protein 1 = Bcl-2-like protein 1 (Homo sapiens, UniProt Q07817); assay: blockers of BCLXL peptide binding – biochemical, fluorescence polarization, 1536-well, selectivity assay for MCL1 inhibitor project, dose response (AID 2218)
Sequence of Bcl-2-like protein 1 (Q07817 whole entry): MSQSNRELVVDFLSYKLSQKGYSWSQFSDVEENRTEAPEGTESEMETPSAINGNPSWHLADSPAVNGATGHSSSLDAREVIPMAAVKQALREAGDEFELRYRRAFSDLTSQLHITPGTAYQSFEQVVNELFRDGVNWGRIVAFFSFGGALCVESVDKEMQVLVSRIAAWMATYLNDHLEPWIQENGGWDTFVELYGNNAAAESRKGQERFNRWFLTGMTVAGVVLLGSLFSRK

Sequence of Cytochrome P450 2C19 (P33261 whole entry): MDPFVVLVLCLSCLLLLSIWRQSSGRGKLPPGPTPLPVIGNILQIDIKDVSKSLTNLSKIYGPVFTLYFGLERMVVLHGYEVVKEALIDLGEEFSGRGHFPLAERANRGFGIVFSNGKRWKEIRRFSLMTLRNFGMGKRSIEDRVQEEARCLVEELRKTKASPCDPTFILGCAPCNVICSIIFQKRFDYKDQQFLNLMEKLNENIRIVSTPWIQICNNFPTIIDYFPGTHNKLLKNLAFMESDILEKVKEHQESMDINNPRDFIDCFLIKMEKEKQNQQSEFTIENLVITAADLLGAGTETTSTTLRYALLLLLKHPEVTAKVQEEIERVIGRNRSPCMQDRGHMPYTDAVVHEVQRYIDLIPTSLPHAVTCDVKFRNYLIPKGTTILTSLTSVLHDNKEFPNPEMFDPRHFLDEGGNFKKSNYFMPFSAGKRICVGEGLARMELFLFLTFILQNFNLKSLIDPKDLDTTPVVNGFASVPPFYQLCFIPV

AC50 (Cytochrome P450 2C19): 20 µM (inconclusive)
AC50 (Cytochrome P450 1A2): inconclusive
Compound: CC(C)[C@@H]1C(=O)N(S(C)(=O)=O)[C@H]2CCN(C(=O)/C=C\CN3CCCCC3)[C@@H]12

IC50 (Cannabinoid receptor 2 [1]): > 32 µM (inactive)
EC50 [2]: > 32 µM (inactive)
IC50 [3]: 11 µM (active)
IC50 [4]: 10.9 µM (inactive)
EC50 (Cannabinoid receptor 1 [5]): > 32 µM (inactive)
EC50 (Cannabinoid receptor 2 [6]): 27.4 µM (inactive)
IC50 (Cannabinoid receptor 1 [7]): 3.49 µM (active)
IC50 [8]: 2.95 µM (active)
IC50 [9]: > 32 µM (inactive)
Compound: Oc1ccc(-c2n[nH]c(C(F)(F)F)c2-c2ccccc2)c(O)c1

AC50 (Cytochrome P450 2C19): 4.47 µM (inconclusive)
AC50 (Cytochrome P450 3A4): inconclusive
AC50 (Cytochrome P450 2C9): 7.08 µM (inconclusive)
Compound: Cc1ccc(C)c(N2CCN(C(=O)C3CCN(S(=O)(=O)c4cccc5nsnc45)CC3)CC2)c1

IC50 [10]: 11.9 µM (active)
IC50 (Phosphomannomutase 2): > 100 µM (inactive)
Compound: COCC/N=c1\ssnc1Cl

EC50 [11]: > 64 µM (inactive)
EC50 (Mu-type opioid receptor): > 32 µM (inactive)
EC50 [12]: 7.01 µM (active)
EC50 [13]: 5.29 µM (active)
Compound: Fc1ccc(CSc2nnc(-c3ccccn3)n2Cc2ccco2)c(F)c1F

Compound: O=C(CN1CCOCC1)N/N=C/c1ccc([N+](=O)[O-])o1
EC50 [14]: 0.127 µM (active)

IC50 (Albumin): > 94.2 µM (inactive)
EC50 [15]: 43.4 µM (active)
EC50 [16]: 71.9 µM (active)
IC50 [17]: 18.8 µM (not active)
IC50 (Genome polyprotein): > 100 µM (active)
EC50 [18]: 81 µM (active)
IC50 (Bcl-2-like protein 1): > 109 µM (not active)
Compound: O=c1cc(-c2ccc(O)cc2)oc2c(O)c(O)c(O)c(O)c12
